Test results as given in patent publication US20090269795A1, “Mutant alpha4betadelta GABAA receptor and methods of treating anxiety or irritability” (priority 2007, published 2009).
Counter-ions that a name gives are not always drawn.

Assays:
α4β2δ GABAA receptors = assay: Whole cell patch clamp of GABA-gated current, recombinant receptors in HEK-293 cells; type: cell-based, human or mouse α4, rat β2, human δ
Text: (§1) Recombinant receptors: Transfection—Plasmids obtained from S. Vicini (rat α1, α5, β2, β3 and γ2), P. Whiting (human α4 and δ) and N. L. Harrison (mouse α4) were propagated in E coli DH5α and prepared using Qiagen Maxi- or Midi-prep kits. (Rat, mouse and human α1, β2, β3 and γ2 subunits are identical or nearly identical.) All receptors were transfected at a 1:1:1 ratio, except α1β2γ2 (1:1:5)^12, α4βδ (5:1:5)^13 and α4β2γ2 (5:1:1). HEK-293 cells were maintained in medium (DMEM:Ham's F-12 1:1) supplemented with 10% fetal calf serum at 37° C. in a humid 5% CO2 atmosphere. Cells were transfected using calcium phosphate or Polyfect (Qiagen) and co-transfected with enhanced green fluorescent protein (ratio of DNA to eGFP was 6:1 or 10:1 depending on the DNA concentration) for visualization. α4-containing GABAA receptors required 2-3 d for maximal levels of expression; all other receptors were recorded 1-2 d after transfection. Because mouse α4 and human α4-containing receptors yielded the same results, the currents were averaged together.
Whole cell patch clamp recording—GABA-gated currents were recorded at room temperature (20-22° C.) at a holding potential of −50 mV^14. The pipet solution contained (in mM): N-methyl-D-glucamine chloride 120, Cs4BAPTA 5 (Calbiochem), Mg-ATP 5, and an ATP regeneration system (20 mM Tris phosphocreatine and creatine kinase). Internal [Cl^−] or the holding potential were varied, using gluconate as the anion, to alter the direction of Cl^− flow, corrected for the junction potential. In some cases, current-voltage curves were constructed using the peak current response to agonist or agonist+THP across a range of holding potentials (−60 to +60) applied as 10 mV steps, or as a voltage ramp. […] Traces are presented as the average of 3 traces after subtraction of the leak current. […] This rapid application technique yields currents with a rapid rise phase. THP was also bath applied 30 s prior to tests of steroid effects. Currents were recorded using an Axopatch 1D amplifier (Axon Instruments) filtered at 2 kHz (four-pole Bessel filter) and detected at 10 kHz (pClamp 5.1). Analysis of peak current was accomplished with pClamp 9.2 and Origin software (Microcal).
Following the recording, the patch was blown out, and the open tip potential recorded using solutions with a 5% difference in NaCl osmolarity to verify the approximate solution exchange time. The time constant (τ) for desensitization was approximated using non-linear curve fitting routines with Levenburg-Marquardt algorithms (Origin software, Microcal). Goodness of fit was determined by minimizing the sum of the squares of deviations of the theoretical curve from the experimental points.
Recombinant receptors: Human embryonic kidney (HEK)-293 cells were transfected with α4 β2δ or other indicated subunit combinations (see Supplementary Methods) and co-transfected with enhanced green fluorescent protein for visualization. GABA-gated currents were recorded at room temperature (20-22° C.) at a holding potential of −50 mV^17 using a pipet solution containing 120 mM: N-methyl-D-glucamine chloride. Internal [Cl^−] or the holding potential were varied to alter the direction of Cl^− flow. […] Currents were recorded using an Axopatch 1D amplifier (Axon Instruments) filtered at 2 kHz (four-pole Bessel filter), detected at 10 kHz and analyzed with pClamp 9.2. Desensitization rate was determined using non-linear curve-fitting routines (Origin, Microcal; see next section).
Further Studies with Recombinant receptors: Transfection—Plasmids obtained from S. Vicini (rat α1, α5, β2, β3 and y2), P. Whiting (human α4 and 6) and N. L. Harrison (mouse α4) were propagated in E coli DH5α and prepared using Qiagen Maxi- or Midi-prep kits. (Rat, mouse and human α1, β2, β3 and γ2 subunits are identical or nearly identical.) All receptors were transfected at a 1:1:1 ratio, except a132γ2 (1:1:5)^12, α4β28 (5:1:5)^13 and α4β2γ2 (5:1:1). […]

female C57BL6 mice = assay: Elevated plus maze (with or without restraint stress); type: in vivo, mouse; settings: pre-administration before restraint stress; pubertal
Text: Animal subjects. Prepubertal and pubertal female C57BL6 mice (3½-6 weeks old, +/+ and δ^−/−1) were housed in a reverse light:dark cycle (12:12). Both sets of mice were originally supplied by G. Homanics (Univ. of Pittsburgh), and were bred on site, with +/+ mice supplemented from Jackson Laboratories (Bar Harbor, Me.). Initially, age-matched+/+littermates of the δ^−/−were used as controls, but because they were indistinguishable from C57BL6, data from both groups were pooled. Genotyping of the tails verified that mice were homozygous δ^−/−. Some animals (+/+ or δ^−/−) were injected with finasteride (1,(5α)-androstene-4-aza-3-one-N-tert-butyl-17β-carboxaminde, Steraloids, 50 mg kg^, −1 intraperitoneally, 3 days) to block THP synthesis^2 or oil vehicle on a daily basis 1-1.5 h before dark onset, when THP levels increase, and tested 30 min. later. The onset of puberty was determined by vaginal opening, and pubertal mice tested on the day of first metestrus, identified by vaginal morphology and verification of first estrus the previous day. Mice with vaginal smears representative of diestrus were excluded from the study. Individual stages of puberty were not distinguished, and pre-pubertal mice were used before any visible signs of pubertal development, assessed by development of the peri-vaginal area. In some cases, pubertal mice were injected with replacement THP (3α-OH-5β-pregnan-20-one, 10 mg kg^−1, intraperitoneally in oil) for three days before testing. Procedures were in accordance with the SUNY Downstate Institutional Animal Care and Use Committee.
Restraint stress. In order to test the effect stress-induced release of THP^6,46,47 on anxiety, mice were restrained in a clear Plexiglas tube-type holder (Harvard Apparatus) for 45 min. and tested 20 min. later on the elevated plus maze (see Supplementary Methods). Open arm time was evaluated for 5 min. on the elevated plus maze. A decrease in open arm time reflects an increase in anxiety^18. In all cases, the results from each mouse tested after restraint was expressed relative to the averaged results from the sham controls, which were identical to the stressed animals (age, genotype, sex, drug-injected), except that they were not subjected to restraint stress.
Elevated plus maze. Testing rodent behavior on the elevated plus maze is an established animal model of anxiety^31. The plus maze consists of four 8×35 cm arms at 90° angles, elevated 57 cm above the floor. Two arms are enclosed by 33 cm walls, and two arms have no walls (“open arms”). […] Each animal was initially acclimated to the room for 30 min-1 h before being placed in the center of the maze, and exploratory activity recorded for 5 min. […]

hippocampal THP levels = assay: Radioimmunoassay of hippocampal 3α,5α-THP levels; type: in vivo, mouse; settings: administration of 5α-reductase blocker
Text: Animal subjects. Prepubertal and pubertal female C57BL6 mice (3½-6 weeks old, +/+ and δ^−/−1) were housed in a reverse light:dark cycle (12:12). Both sets of mice were originally supplied by G. Homanics (Univ. of Pittsburgh), and were bred on site, with +/+ mice supplemented from Jackson Laboratories (Bar Harbor, Me.). Initially, age-matched+/+littermates of the δ^−/−were used as controls, but because they were indistinguishable from C57BL6, data from both groups were pooled. Genotyping of the tails verified that mice were homozygous δ^−/−. […] The onset of puberty was determined by vaginal opening, and pubertal mice tested on the day of first metestrus, identified by vaginal morphology and verification of first estrus the previous day. […] Individual stages of puberty were not distinguished, and pre-pubertal mice were used before any visible signs of pubertal development, assessed by development of the peri-vaginal area. […]
Radioimmunoassay for 3α,5α-THP. Hippocampal levels of 3α,5α-THP were assessed by radioimmunoassay (RIA) by C. […] Sample tube concentrations were calculated using the logit-log method^6, interpolation of the standards, and correction for recovery. […]

α4β2γ2 receptors = assay: Whole cell patch clamp of GABA-gated current, recombinant receptors in HEK-293 cells; type: cell-based, human or mouse α4, rat β2, rat γ2
Text: as §1
Whole cell patch clamp recording—GABA-gated currents were recorded at room temperature (20-22° C.) at a holding potential of −50 mV^14. […] Currents were recorded using an Axopatch 1D amplifier (Axon Instruments) filtered at 2 kHz (four-pole Bessel filter) and detected at 10 kHz (pClamp 5.1). […]

[1] = test system: CA1 hippocampal pyramidal cells (α4βδ receptors); assay: La3+-sensitive gaboxadol-induced current, whole cell patch clamp, hippocampal slice; type: cell-based, mouse; settings: 30 μM GBX, after puberty or THP Wd
[2] = test system: CA1 hippocampal pyramidal cells; assay: Input resistance and neuronal excitability (spiking), hippocampal slice; type: cell-based, mouse; settings: puberty
Protocol: Tonic current was recorded as the difference current produced by 120 μM gabazine, which blocks all GABAA receptor, before and after 30 nM THP^24. Current was also recorded in response to 2 s 10 mV steps in the holding potential, and current-voltage curves generated to the steady-state current. Because fast-inactivating conductances would not be excluded in a voltage ramp, stable steady-state current responses were used instead to construct the current-voltage (IV) curves. Input resistance (Rm) was calculated from the current response to voltage steps from −60 to −40 mV using Ohm's Law. The reversal potential was determined by the […] of the IV curve (−90 to −10 mV). The gabazine-sensitive slope conductance was assessed as the slope of the linear portion of outward current plot recorded before and after THP after subtraction of the gabazine-generated current (in the presence of L-655,708 to block α5-GABAA receptors). Only data with a stable baseline and pipet access resistance <10 MΩ were included in the analysis.
Effects of THP on cell excitability were tested by monitoring spiking using cell attached patch recordings^31 in voltage clamp mode (−40 mV holding potential, 150 mM NaCl intrapipet solution) or assessing the current threshold to spiking and spike frequency in current clamp mode (0.01-0.3 nA steps, starting from −1 nA, 1 s duration). (More complete details are supplied in the Supplementary Methods.)

[3] = test system: CA1 hippocampal pyramidal cell dendrites; assay: Tight-seal cell-attached current-clamp recording during dendritic agonist application; type: cell-based, mouse; settings: 5 μM; stratum radiatum; pubertal
Protocol: Tonic current was recorded as the difference current produced by the selective GABAA receptor antagonist gabazine (120 μM) before and after 30 nM THP^4,29, while gramicidin perforated-patch recordings^33 were accomplished using 140 mM KCl plus 25 μg ml^−1 gramicidin in the pipet solution, recorded when the access resistance dropped to <60 MΩ after tight seal formation. Estimates of the direction of Cl^− current were obtained by recording using tight-seal cell-attached techniques^31 (>1 GΩ seal) in current clamp mode. A downward deflection signified outward (i.e., hyperpolarizing) Cl^− current.
To determine whether THP inhibition of GABAergic currents at puberty was a physiological phenomenon, we initially verified that GABA-gated currents were outward in CA1 hippocampal pyramidal cell dendrites at the onset of puberty. […] The voltage change was recorded in current clamp mode from the soma using tight-seal cell attached techniques at a holding current of 0 pA^31.

`CC(=O)[C@H]1CC[C@H]2[C@@H]3CC[C@H]4C[C@@H](O)CC[C@]4(C)[C@H]3CC[C@]12C` (single isomer, unassigned; isomer 3) [3β-OH isomer, 3βOH-5α[β]-pregnan-20-one] was tested. Which “inhibitory effect on outward GABA-gated current” value (α4β2δ GABAA receptors; isomer selectivity, FIG. 1e) did it give?
The value was “selective for the active 3α-OH isomer, but not the inactive 3,3-OH isomer”.

What about the “effect on stress-induced increase in anxiety” value (female C57BL6 mice) of the same compound?
The value was “prevented the stress-induced increase in anxiety”.

Which “decline in hippocampal THP levels” value (hippocampal THP levels) does the source give for `CC(C)(C)NC(=O)[C@H]1CC[C@H]2[C@@H]3CC[C@H]4NC(=O)C=C[C@]4(C)[C@H]3CC[C@]12C` [5α-reductase blocker, 1,(5α)-androstene-4-aza-3-one-N-tert-butyl-17β-carboxaminde] here?
Its value is 58±10%.

`NCCCC(=O)O` [GABA] was tested. Which “GABA EC20” value (α4β2δ GABAA receptors) did it give?
Its value is […].

And the “GABA EC20” value (α4β2γ2 receptors)?
Its value is 5 µM.

With `[La+3]` [La^3+] as the compound, how does the “reduction of GBX-generated current” value ([1]; 300 μM La3+) read?
Its value is 50-70%.

Which “effect of Ih blockade on excitatory effect of THP” value ([2]; 20 μM ZD 7288) does the source give for `CCN(c1ccccc1)c1cc(=NC)n(C)c(C)n1.Cl` [ZD 7288] here?
The value was “did not prevent the excitatory effect of THP”.

With `COc1ccc(-c2ccc(=N)n(CCCC(=O)O)n2)cc1` [gabazine, 6-imino-3-(4-methyoxyphenyl)-1 (6H)-pyridazinebutanoic acid hydrobromide] as the compound, how does the “effect on THP-induced increase of input resistance” value ([2]; 120 μM gabazine pre-applied) read?
The value was “prevented”.

`Oc1noc2c1CCNC2` [gaboxadol, 4,5,6,7-Tetrahydroisoxazolo[5,4-c]pyridin-3-ol] was tested. Which “GBX-generated current vs pre-pubertal slices” value [1] did it give?
Its value is “significantly larger current”.

And the “change in membrane potential on dendritic application” value [3]?
Its value is “downward shift of the membrane potential”.
